{
  "source": "patent US20130273656A1",
  "about": "“METHOD TO INCREASE GENE TARGETING FREQUENCY” (Regents of the University of Minnesota, priority 2010, published 2013)",
  "key": {"HCT116 cells": {"test_system": "HCT116 cells", "experiment": "rAAV-mediated gene targeting of the CCR5 locus in HCT116 cells, correct targeting scored by diagnostic PCR of G418-resistant clones", "assay_type": "cell-based, human", "procedure": "The human colon cancer cell line HCT116 was obtained from the American Type Culture Collection and maintained in McCoy's 5A media (Mediatech Inc.) containing 10% heat inactivated fetal calf serum (Cambrex), 2 mM L-glutamine, 100 U/ml penicillin and […] streptomycin (Invitrogen). The cells were grown at 37° C. in a humidified incubator with 5% CO2. Cell lines derived from correct targeting events were grown either in the presence of 1 mg/ml G418 or 1 μg/mL puromycin.\nThe targeting vectors, Ku70-Neo (Fattah et al., DNA Repair, 2008, 7:762-774) and CCR5-Neo (Fattah et al., PNAS, 2008, 105:8703-8708), were constructed by using the rAAV system as described (Kohli et. al., Nucl. Acids Res., 2004, 32:e3). All virus packaging and infections were performed as described (Kohli et. al., Nucl. Acids Res., 2004, 32:e3).\nGenomic DNA for PCR screening was isolated by using phenol extraction followed by ethanol precipitation. DNA-PKcs- and CCR5-targeting events were identified by PCR using conditions described elsewhere (Ruis et. al., Mol. Cell. Biol., 2008, 28:6182-6195; Kohli et. al., Nucl. Acids Res., 2004, 32:e3). The primers used to screen for DNA-PKcs targeting events were LArmR, […] (SEQ ID NO:5) and PKcs81-83F1, […]. (SEQ ID NO:6) The primers used to screen for CCR5 targeting events were CF, GCACCATGCTTGACCCAG (SEQ ID NO:7) and NR, […] (SEQ ID NO:8). […]"}, "DNA-PK complex": {"target": "T1, DNA-PK complex (Homo sapiens, UniProt P78527)", "T1 construct": "whole cell extracts were prepared from a portion of the cells and assayed for DNA-PK complex kinase activity; endogenous in cells; host or cells: HCT116 (controls: MO59J, MO59K)", "experiment": "DNA-PK complex kinase activity in extracts of treated cells, standard p53 peptide assay", "assay_type": "cell-based", "conditions": "HCT116 cells treated with 10 μM at time 0 and at 4 hr post-infection", "procedure": "Nuclear extracts were incubated on ice for 15 min with preswollen dsDNA-cellulose (Sigma). Nuclear extract (100 μg) was used with each sample. Following incubation on ice, the samples were washed twice in Z′ 0.05 buffer (25 mM HEPES-KOH, 50 mM KCl, 10 mM MgCl2, 20% glycerol, 0.1% IGEPAL™, 1 mM dithiothreitol). After the washing steps, the samples were centrifuged and the precipitate was resuspended in 100 μl Z′ 0.05 buffer. […] The wild-type peptide can be phosphorylated by DNA-PK at the serine residue, while the mutant peptide is not recognized by DNA-PK. Following incubation, polyacrylamide gel electrophoresis was carried out. The gel was vacuum dried and exposed to X-ray film. The amount of phosphorylated peptide was quantified using a phosphorimager."}},
  "note": "Entries after “also recorded” stand apart in the source; their conditions may differ.",
  "data": [
    {"smiles": "O=c1cc(N2CCOCC2)oc2c(-c3cccc4c3sc3ccccc34)cccc12", "note": "[NU7441, 8-dibenzothiophen-4-yl-2-morpholin-4-yl-chromen-4-one]", "values": [
      {"measurement": "increase of frequency of gene targeting", "setting": "HCT116 cells; DNA-PKcs kinase inhibition by NU7441, rAAV CCR5 vector, compared to wild-type cells", "result": "~7", "unit": "fold"},
      {"measurement": "correct gene targeting frequency", "setting": "HCT116 cells; HCT116, 10 μM NU7441 at time 0 and again at 4 hr post-infection, rAAV CCR5 vector, 17 of 229 G418-resistant clones", "result": 7.4, "unit": "%"},
      {"measurement": "duration of DNA-PK / DNA-PKcs inhibition", "setting": "DNA-PK complex", "result": "a matter of hours; also recorded: several hours"},
      {"measurement": "DNA-PK activity", "setting": "DNA-PK complex; whole cell extracts", "result": "nearly completely ablated"}
    ]}
  ]
}
